Reference: ChEMBL document CHEMBL1157251, “Bioactive compounds from Peperomia pellucida” (J Nat Prod, 2006)

Tests used:
Estrogen receptor = biological target: T1, Estrogen receptor (Homo sapiens, UniProt P03372); experiment: Agonist activity at human ERalpha expressed in african green monkey CV1 cells by luciferase reporter gene assay relative to 17beta estradiol; format: functional, cell-based, CV-1
T1 sequence (P03372 whole entry): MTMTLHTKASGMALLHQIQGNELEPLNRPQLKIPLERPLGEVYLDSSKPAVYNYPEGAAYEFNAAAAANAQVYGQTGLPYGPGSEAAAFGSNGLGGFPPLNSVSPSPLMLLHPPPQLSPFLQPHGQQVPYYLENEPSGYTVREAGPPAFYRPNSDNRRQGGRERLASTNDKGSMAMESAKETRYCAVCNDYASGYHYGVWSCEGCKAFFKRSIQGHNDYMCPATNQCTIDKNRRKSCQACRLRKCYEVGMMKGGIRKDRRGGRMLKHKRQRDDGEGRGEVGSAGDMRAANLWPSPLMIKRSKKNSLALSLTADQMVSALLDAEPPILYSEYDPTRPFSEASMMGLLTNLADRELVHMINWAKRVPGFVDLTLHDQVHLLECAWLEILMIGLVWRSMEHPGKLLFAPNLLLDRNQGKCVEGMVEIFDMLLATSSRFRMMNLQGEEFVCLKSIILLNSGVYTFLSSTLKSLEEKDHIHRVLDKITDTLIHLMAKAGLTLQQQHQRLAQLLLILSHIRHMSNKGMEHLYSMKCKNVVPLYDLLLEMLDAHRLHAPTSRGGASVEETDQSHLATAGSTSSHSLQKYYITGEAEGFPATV

MCF7 [1] = experiment: Promotion of cell proliferation in human MCF7 cells; format: functional, cell-based
HL-60 [2] = experiment: Antiproliferative effect against human HL60 cells after 69 hrs; format: functional, cell-based; conditions: HL-60, 69 h
MCF7 [3] = experiment: Antiproliferative effect against human MCF7 cells after 72 hrs by MTT assay; format: functional, cell-based; conditions: MCF7, 72 h
HL-60 [4] = experiment: Growth inhibition of human HL60 cells at 20 uM after 69 hrs; format: functional; conditions: HL-60, 69 h, read-out: GI
MCF7 [5] = experiment: Growth inhibition of human MCF7 cells at 20 uM after 72 hrs by MTT assay; format: functional; conditions: MCF7, 72 h, read-out: GI
HeLa [6] = experiment: Antiproliferative effect against human HeLa cells after 69 hrs by MTT assay; format: functional, cell-based
HeLa [7] = experiment: Growth inhibition of human HeLa cells at 20 uM after 69 hrs by MTT assay; format: functional; conditions: read-out: GI

Compound	EC50 (Estrogen receptor) [µM]	EC50 (MCF7 [1]) [µM]	IC50 (HL-60 [2]) [µM]	IC50 (MCF7 [3]) [µM]	inhibition of growth at 20 µM (HL-60 [4]) [%]	inhibition of growth at 20 µM (MCF7 [5]) [%]	IC50 (HeLa [6]) [µM]	inhibition of growth at 20 µM (HeLa [7]) [%]
COc1cc([C@H]2O[C@@H](c3cc(OC)c4c(c3)OCO4)[C@@H](CO)[C@@H]2COC(C)=O)cc2c1OCO2	3.1	0.142	–	–	–	–	–	–
C=C1C(=O)OCC1C(c1cc(OC)c(OC)c(OC)c1)c1cc(OC)c2c(c1)OCO2 (stereo not given)	–	–	1.4	3.8	92	91	9.1	96
COc1cc(OC)c(C2CCC(=O)c3c(OC)cc(OC)c(OC)c32)cc1OC (stereo not given)	–	–	–	–	< 5	37.6	–	< 5
COc1cc(C(c2cc(OC)c3c(c2)OCO3)[C@@H]2COC(=O)[C@H]2C)cc(O)c1OC (relative stereo)	–	–	10.8	–	92	53.2	–	10
COc1cc([C@@H]2c3cc4c(cc3[C@@H](O[C@@H]3O[C@@H]5CO[C@@H](C)O[C@H]5[C@H](O)[C@H]3O)[C@H]3COC(=O)[C@H]23)OCO4)cc(OC)c1O [ETOPOSIDE]	–	–	0.21	0.19	93.5	73.5	3.6	85.3
COc1cc(C(c2cc(OC)c3c(c2)OCO3)[C@@H]2COC(=O)[C@H]2C)cc2c1OCO2 [PEPEROMIN A]	–	–	–	–	17	27.7	–	< 5
C=C1C(=O)OC[C@H]1C(c1cc(OC)c2c(c1)OCO2)c1cc(OC)c2c(c1)OCO2 [PEPEROMIN E]	–	–	1.8	3.9	93	90.7	11.1	95
